Measurements reported in patent US7589167B2, “ZA loops of bromodomains” (J. David Gladstone Institutes, priority 2000, dated 2009).
Where a SMILES comes first, the peptide text is derived from it.

Molecular target: T1, P/CAF bromodomain (Homo sapiens, UniProt Q92831, P804A/P805A)
T1 construct: poly-His (N, cleaved yes); made in house; host or cells: Escherichia coli BL21(DE3)
T1 sequence (Q92831 719-832 P804A/P805A): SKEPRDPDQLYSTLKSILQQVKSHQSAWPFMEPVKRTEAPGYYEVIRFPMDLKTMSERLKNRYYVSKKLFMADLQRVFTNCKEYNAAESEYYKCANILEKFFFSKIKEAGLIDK
Assay: Peptide competition assay with biotinylated wild type Tat AcK50 peptide (western blot)
Format: binding
Details: protein ~10 μM, wild type:mutant peptide 1:2
Protocol: Peptide binding assay. […] Streptavidin agarose (10 μL) was added to mixture and the beads were washed twice in the Tris buffer with 500 mM NaCl and 0.1% NP-40. Proteins were eluted from the argarose beads in SDS buffer and separated on a 14% SDS-PAGE. The resolved proteins were transferred onto nitrocellulose membrane (Pharmacia), and the membrane was blocked overnight with 5% non-fat milk in washing buffer of 20 mM Tris, pH 7.5, plus 150 mM NaCl and 0.1% Tween-20 at 4° C. Western blotting was performed with anti-GST antibody (Sigma) and goat anti-rabbit IgG conjugated with horseradish-peroxidase (Promega) and developed by chemiluminescence. Peptide competition experiments were performed by incubating various non-biotinylated and mutant Tat peptide with the P/CAF bromodomain and the biotinylated and wild type Tat peptide. The molar ratio of the wild type and mutant Tat peptides in the mixture were kept at 1:2. The binding results were analyses by using the procedure as described above.

Compound: CC(=O)NCCCC[C@H](NC(=O)[C@H](CCCCN)NC(=O)[C@H](CS)NC(=O)[C@H](Cc1ccc(O)cc1)NC(=O)[C@H](CS)NC(=O)[C@H](CC(N)=O)NC(=O)[C@@H](N)[C@@H](C)O)C(=O)N[C@@H](CS)C(=O)N[C@@H](CS)C(=O)N[C@@H](Cc1ccccc1)C(=O)N[C@@H](Cc1c[nH]cn1)C(=O)O [Tat AcK 28 peptide, TNCYCK-AcK-CCFH] (H-TNCYCKK(Ac)CCFH-OH)
- competition with / binding relative to Tat AcK50 peptide (qualitative): almost no competition
